According to patent US11066378B2, “Caffeic acid derivatives for anti-angiogenesis” (Taipei Medical University, priority 2015, dated 2021):

How the values were obtained:
[1] = tested on: LLC1 lung carcinoma tumor; test: Lewis lung carcinoma-bearing mouse model; format: in vivo; settings: LLC1-bearing mice, 2-week treatment, 4 and 8 mg/kg/day intraperitoneal, FIG. 1A
From the text: The experimental design and procedure according to the method reported by our previous study with minor modification (Liu et al., 2013). Briefly, male C57BL/6 mice (average of 8-week-old) were purchased from the BioLASCO (Taipei, Taiwan) and housed in a 12-h light/dark cycles with free access to food and water. All animal care followed the institutional animal ethical guidelines of ChinaMedical University (Taichung, Taiwan). After 1 week adaptation, the mice were divided randomly into three groups (n=6/group): Group 1 (control group; treatment with normal saline), Group 2 (treatment with 4 mg/kg body weight/day of […]), and Group 3 (treatment with 8 mg/kg body weight/day of […]). At first, the LLC1 lung cancer cells (6×10^5 cells in 100 μL of total volume) were injected subcutaneously into the back skin of mice to induce lung carcinoma xenografts. Two weeks later, the tumor-bearing mice began to receive the treatments according to experiment design (normal saline or […] with different dosages) by intraperitoneal injection once a day for two weeks. At the end of the study, the tumor masses were harvested to photograph and weighted.

[2] = tested on: VEGF-induced vessel formation within the Matrigel plug; test: Matrigel plug assay (VEGF-induced neovascularization); format: in vivo, mouse; settings: mice, dose-dependent
Method: Male C57BL/6 (average of 6-week-old) mice were divided randomly into four groups (n=3/group): Group 1 (control group; injection with 500 μL cold-Matrigel [#356237; BD Biosciences]), Group 2 (injection with 500 μL cold-Matrigel containing 100 ng/mL VEGF and 100 U/mL heparin), Group 3 (injection with 4 μM […] dissolved in 500 μL cold-Matrigel containing 100 ng/mL VEGF and 100 U/mL heparin), and Group 4 (injection with 8 μM […] dissolved in 500 μL cold-Matrigel containing 100 ng/mL VEGF and 100 U/mL heparin). After 1 week adaptation, the mice were anesthetized and injected subcutaneously with pre-prepared cold-Matrigel gel mentioned above into the left groin region to form jelly-like plug under normal body temperature. The vascular endothelial cells will be attracted by Matrigel plug-released VEGF to form the new vessel within the Matrigel plug, whose process will be suppressed by anti-angiogenic substances added in the Matrigel plugs. After 7 days, the mice were sacrificed and the Matrigel plug was recovered and photographed. The harvested Matrigel plugs were further homogenized in 1× phosphate buffered saline (PBS) and then centrifuged at 10000×g for 10 min at 4° C. The Drabkin's Reagent (#D5941; Sigma-Aldrich, Louis, Mo., USA) was applied for examining the hemoglobin content in the supernatants of the homogenized Matrigel plugs according to the manufacturer's instructions. […]

[3] = tested on: VEGF; test: VEGF level in LLC1 cells (immunoblot) and culture medium (ELISA); format: cell-based, mouse; settings: 24 h, FIG. 5
Method: The experiments were carried out as described previously (Pan et al., 2010). Briefly, the cells (5×10^5 cells/well) seeded on the 6-well plates and incubated with different concentrations (0.5, 1, and 2 μM) of K20E under normal culture condition for 15 min or 24 h to detect the expression levels of the phosphorylated proteins and the total proteins, respectively. The treated cells were harvested and lysed by using PROPREP® protein extraction solution (#17081; iNtRON Biotechnology, Gyeonggi-Do, South Korea). The cell lysates were further centrifuged at 13000×g at 4° C. for 10 min to collect the supernatants for sodium dodecyl sulfate-polyacrylamide gel electrophoresis (SDS-PAGE). Protein concentration was measured by the Bio-Rad protein assay kit (Bio-Rad, Hercules, Calif., USA) according to the manufacturer's instructions. Aliquots containing 30 μg protein were electrophoresed using 10% slab SDS-PAGE gels and then transferred to PVDF membranes (Immobilon-P™; Millipore, Bedford, Mass., USA). […] The luminescence signal was acquired by Fujifilm LAS-4000 system (San Leandro, Calif., USA) and quantified by using MultiGauge software (v3.0; Fujifilm). […] The relative protein expression was calculated according to the values of the control group (treated with 5% or 10% FBS alone) as 100%. […]

[4] = tested on: p53-p21 pathway; test: p53 and p21 protein levels in HUVECs (immunoblot); format: cell-based, human; settings: FIG. 7
Method: The experiments were carried out as described previously (Pan et al., 2010). Briefly, the cells (5×10^5 cells/well) seeded on the 6-well plates and incubated with different concentrations (0.5, 1, and 2 μM) of K20E under normal culture condition for 15 min or 24 h to detect the expression levels of the phosphorylated proteins and the total proteins, respectively. The treated cells were harvested and lysed by using PROPREP® protein extraction solution (#17081; iNtRON Biotechnology, Gyeonggi-Do, South Korea). The cell lysates were further centrifuged at 13000×g at 4° C. for 10 min to collect the supernatants for sodium dodecyl sulfate-polyacrylamide gel electrophoresis (SDS-PAGE). Protein concentration was measured by the Bio-Rad protein assay kit (Bio-Rad, Hercules, Calif., USA) according to the manufacturer's instructions. Aliquots containing 30 μg protein were electrophoresed using 10% slab SDS-PAGE gels and then transferred to PVDF membranes (Immobilon-P™; Millipore, Bedford, Mass., USA). […] The luminescence signal was acquired by Fujifilm LAS-4000 system (San Leandro, Calif., USA) and quantified by using MultiGauge software (v3.0; Fujifilm). […] The relative protein expression was calculated according to the values of the control group (treated with 5% or 10% FBS alone) as 100%.

Structure (SMILES): COC(=O)/C=C/c1cc(OC(C)=O)c2c(c1)[C@H](C(=O)OC)[C@@H](c1ccc(OC(C)=O)c(OC(C)=O)c1)O2 [K20E]
- tumor mass [1]: dose-dependently reduced
- neovessel formation within the Matrigel plug with VEGF ([2]; 4 and 8 μM, not at lower dose (1 and 2 μM), FIG. 1B upper panel): significantly decreased
- hemoglobin content of the implanted Matrigel plugs with VEGF ([2]; compared to Matrigel with VEGF alone, FIG. 1B lower panel): obviously diminished
- intracellular level of VEGF protein ([3]; LLC1 cancer cells, immunoblot): dose-dependently decrease
- secreted level of VEGF protein ([3]; LLC1 culture medium, ELISA): dose-dependently decrease
- expression level of p21 protein [4]: dose-dependently increased
- expression level of p53 protein [4]: dose-dependently increased
